# Active and inactive are the calls of the source. How the calls were made is not given here.
# System: CCRIS mutagenicity, Ames/micronucleus/aberration tests
# Assay: CCRIS mutagenicity studies
# [1] = Test System: AMES SALMONELLA TYPHIMURIUM, Strain/Indicator: TA98, Metabolic Activation: NONE, Method: STANDARD PLATE
# [2] = Test System: AMES SALMONELLA TYPHIMURIUM, Strain/Indicator: TA100, Metabolic Activation: NONE, Method: STANDARD PLATE
# [3] = Test System: AMES SALMONELLA TYPHIMURIUM, Strain/Indicator: TA98, Metabolic Activation: RAT, LIVER, S-9, AROCLOR 1254, Method: STANDARD PLATE
# [4] = Test System: AMES SALMONELLA TYPHIMURIUM, Strain/Indicator: TA100, Metabolic Activation: RAT, LIVER, S-9, AROCLOR 1254, Method: STANDARD PLATE
compound,measurement,setting,value
CC1=C[C@H](O)[C@H]2C[C@@H]1C2(C)C,mutagenic call,[1],inactive; negative
same,mutagenic call,"Test System: AMES SALMONELLA TYPHIMURIUM, Strain/Indicator: TA98, Metabolic Activation: RAT, LIVER, S-9, Method: STANDARD PLATE",inactive; negative
same,mutagenic call,[2],inactive; negative
same,mutagenic call,"Test System: AMES SALMONELLA TYPHIMURIUM, Strain/Indicator: TA100, Metabolic Activation: RAT, LIVER, S-9, Method: STANDARD PLATE",inactive; negative
same,mutagenic call,"Test System: AMES SALMONELLA TYPHIMURIUM, Strain/Indicator: TA1535, Metabolic Activation: NONE, Method: STANDARD PLATE",inactive; negative
same,mutagenic call,"Test System: AMES SALMONELLA TYPHIMURIUM, Strain/Indicator: TA1535, Metabolic Activation: RAT, LIVER, S-9, Method: STANDARD PLATE",inactive; negative
same,mutagenic call,"Test System: AMES SALMONELLA TYPHIMURIUM, Strain/Indicator: TA1538, Metabolic Activation: NONE, Method: STANDARD PLATE",inactive; negative
same,mutagenic call,"Test System: AMES SALMONELLA TYPHIMURIUM, Strain/Indicator: TA1538, Metabolic Activation: RAT, LIVER, S-9, Method: STANDARD PLATE",inactive; negative
O=C1C=CC(=O)N1,mutagenic call,"Test System: AMES SALMONELLA TYPHIMURIUM, Strain/Indicator: TA98, Metabolic Activation: HAMSTER, LIVER, S-9, AROCLOR 1254, Method: STANDARD PLATE",active; positive
same,mutagenic call,[1],active; positive
same,mutagenic call,[3],active; positive
same,mutagenic call,"Test System: AMES SALMONELLA TYPHIMURIUM, Strain/Indicator: TA100, Metabolic Activation: HAMSTER, LIVER, S-9, AROCLOR 1254, Method: STANDARD PLATE",inactive; negative
same,mutagenic call,[2],inactive; negative
same,mutagenic call,[4],active; positive
same,mutagenic call,"Test System: MOUSE LYMPHOMA, Strain/Indicator: L5178Y (TK+/TK-), Metabolic Activation: NONE, Method: SUSPENSION/PLATE",active; positive. reevaluation of results: inconclusive
same,mutagenic call,"Test System: MOUSE LYMPHOMA, Strain/Indicator: L5178Y (TK+/TK-), Metabolic Activation: RAT, LIVER, S-9, AROCLOR 1254, Method: SUSPENSION/PLATE",active; positive. reevaluation of results: positive
ClCc1c2ccccc2c(Cl)c2ccccc12,mutagenic call,[2],active; positive
O=C(/C=C/c1ccc(O)cc1)c1ccccc1,mutagenic call,[1],inactive; negative
same,mutagenic call,[3],inactive; negative
same,mutagenic call,[2],inactive; negative
same,mutagenic call,[4],inactive; negative
C=C1[C@H](O)[C@@]23CC[C@H]4[C@@](C)(CCC[C@@]4(C)C(=O)O)[C@@H]2CC[C@]1(O)C3,mutagenic call,"Test System: AMES SALMONELLA TYPHIMURIUM, Strain/Indicator: TM677, Metabolic Activation: RAT, LIVER, S-9, AROCLOR 1254, Method: PREINCUBATION",inactive; negative
C1COCOC1,mutagenic call,"Test System: AMES SALMONELLA TYPHIMURIUM, Strain/Indicator: TA98, Metabolic Activation: HAMSTER, LIVER, S-9, AROCLOR 1254, Method: PREINCUBATION",inactive; negative
same,mutagenic call,"Test System: AMES SALMONELLA TYPHIMURIUM, Strain/Indicator: TA98, Metabolic Activation: NONE, Method: PREINCUBATION",inactive; negative
same,mutagenic call,"Test System: AMES SALMONELLA TYPHIMURIUM, Strain/Indicator: TA98, Metabolic Activation: RAT, LIVER, S-9, AROCLOR 1254, Method: PREINCUBATION",inactive; negative
same,mutagenic call,"Test System: AMES SALMONELLA TYPHIMURIUM, Strain/Indicator: TA100, Metabolic Activation: HAMSTER, LIVER, S-9, AROCLOR 1254, Method: PREINCUBATION",inactive; negative
same,mutagenic call,"Test System: AMES SALMONELLA TYPHIMURIUM, Strain/Indicator: TA100, Metabolic Activation: NONE, Method: PREINCUBATION",inactive; negative
same,mutagenic call,"Test System: AMES SALMONELLA TYPHIMURIUM, Strain/Indicator: TA100, Metabolic Activation: RAT, LIVER, S-9, AROCLOR 1254, Method: PREINCUBATION",inactive; negative
same,mutagenic call,"Test System: AMES SALMONELLA TYPHIMURIUM, Strain/Indicator: TA1535, Metabolic Activation: HAMSTER, LIVER, S-9, AROCLOR 1254, Method: PREINCUBATION",inactive; negative
same,mutagenic call,"Test System: AMES SALMONELLA TYPHIMURIUM, Strain/Indicator: TA1535, Metabolic Activation: NONE, Method: PREINCUBATION",inactive; negative
same,mutagenic call,"Test System: AMES SALMONELLA TYPHIMURIUM, Strain/Indicator: TA1535, Metabolic Activation: RAT, LIVER, S-9, AROCLOR 1254, Method: PREINCUBATION",inactive; negative
same,mutagenic call,"Test System: AMES SALMONELLA TYPHIMURIUM, Strain/Indicator: TA1537, Metabolic Activation: HAMSTER, LIVER, S-9, AROCLOR 1254, Method: PREINCUBATION",inactive; negative
same,mutagenic call,"Test System: AMES SALMONELLA TYPHIMURIUM, Strain/Indicator: TA1537, Metabolic Activation: NONE, Method: PREINCUBATION",inactive; negative
same,mutagenic call,"Test System: AMES SALMONELLA TYPHIMURIUM, Strain/Indicator: TA1537, Metabolic Activation: RAT, LIVER, S-9, AROCLOR 1254, Method: PREINCUBATION",inactive; negative

# Reference: PubChem BioAssay AID1259407 (Chemical Carcinogenesis Research Information System (CCRIS), 2018)
